The values that follow come from US6783769B1, “Transdermal therapeutic system TTS containing tolterodine” (Schwarz Pharma AG, priority 1999, dated 2004).

SMILES strings stand for the structures. Where two headings read alike, the source gives them in different places.

The nature of data set [1]: Rate of dermal penetration, deuterated versus non-deuterated tolterodine (general statement). Format: in vitro ADME. The settings on record: compared with non-deuterated tolterodine.
For data set [2] the following is noted: oral application, cited from earlier work.

As for `[2H]C([2H])([2H])c1ccc(O)c(C(CCN(C(C)C)C(C)C)c2ccccc2)c1` (stereo not drawn) [deuterated tolterodine, 2-(3-diisopropylamino-1-phenylpropyl)-4-[^2H3]methyl-phenol], the “rate of dermal penetration” value in data set [1] was “considerably increased”.
Regarding `Cc1ccc(O)c(C(CCN(C(C)C)C(C)C)c2ccccc2)c1` (stereo not drawn) [tolterodine, N,N-diisopropyl-3-(2-hydroxy-5-methylphenyl)-3-phenylpropylamine], the absolute bioavailability in data set [2] (rapid metabolisers) is reported as 17%; in data set [2] (slow metabolisers) it was 65%.
